Tests used:
Assay type in all cases: in vivo
[1] = test system: adult fleas (Ctenocephalides felis); assay: Ctenocephalides felis; oral (CTECFE); details: 100 ppm in citrated cattle blood
Protocol: Ctenocephalides felis; Oral (CTECFE)
To produce a suitable preparation of active compound, 1 part by weight of active compound is mixed with the stated amount of solvent. Part of the concentrate is diluted with citrated cattle blood, and the desired concentration is prepared.
20 unfed adult fleas (Ctenocephalides felis) are placed into a chamber whose top and bottom ends are closed with gauze. A metal cylinder whose bottom end is closed with parafilm is placed onto the chamber. The cylinder contains the blood/active compound preparation, which can be taken up by the fleas through the parafilm membrane. The blood is warmed to 37° C., but the flea chamber is at room temperature.
After the desired period of time, the kill in % is determined 100% means that all fleas have been killed; 0% means that none of the fleas have been killed.

[2] = test system: green peach aphid (Myzus persicae); assay: Myzus test (MYZUPE spray treatment); details: 500 g/ha, spray on Chinese cabbage leaf discs
Protocol: Myzus Test (MYZUPE Spray Treatment)
(§1) To produce a suitable preparation of active compound, 1 part by weight of active compound is mixed with the stated amounts of solvent and emulsifier, and the concentrate is diluted with emulsifier-containing water to the desired concentration.
Discs of Chinese cabbage leaves (Brassica pekinensis) which are infested by all stages of the green peach aphid (Myzus persicae) are sprayed with a preparation of active compound of the desired concentration.
After the desired period of time, the effect in % is determined 100% means that all aphids have been killed; 0% means that none of the aphids have been killed.

Lucilia cuprina larvae = assay: Lucilia cuprina test (LUCICU); details: 100 ppm, treated horse meat
Protocol: Lucilia cuprina Test (LUCICU)
To produce a suitable preparation of active compound, 1 part by weight of active compound is mixed with the stated amounts of solvent, and the concentrate is diluted with water to the desired concentration.
Containers containing horse meat treated with the preparation of active compound of the desired concentration are populated with Lucilia cuprina larvae.
After the desired period of time, the kill in % is determined 100% means that all larvae have been killed; 0% means that none of the larvae have been killed.

[3] = test system: whitefly (Bemisia tabaci); assay: Bemisia tabaci (BEMITA spray treatment); details: 500 g/ha, spray on cotton leaf discs infested by larvae
Protocol: Bemisia tabaci (BEMITA Spray Treatment)
as §1
Discs of cotton leaves (Gossypium hirsutum) which are infested by larvae of the whitefly (Bemisia tabaci) are sprayed with a preparation of active compound of the desired concentration.
After the desired period of time, the effect in % is determined 100% means that all whiteflies have been killed; 0% means that none of the whiteflies have been killed.

Meloidogyne incognita = assay: Meloidogyne test (MELGIN spray treatment); details: 20 ppm, nematicidal activity by formation of galls on lettuce roots
Protocol: Meloidogyne Test (MELGIN Spray Treatment)
(§2) To produce a suitable preparation of active compound, 1 part by weight of active compound is mixed with the stated amounts of solvent and emulsifier, and the concentrate is diluted with water to the desired concentration.
Containers are filled with sand, active compound solution, Meloidogyne incognita egg/larvae suspension and lettuce seeds. The lettuce seeds germinate and the plants develop. On the roots, galls are formed.
After the desired period of time, the nematicidal activity is determined by the formation of galls in %. 100% means that no galls were found; 0% means that the number of galls on the treated plants corresponds to that of the untreated controls.

[4] = test system: cotton aphid (Aphis gossypii); assay: Aphis gossypii test (APHIGO), leaf dip; details: 100 ppm, cotton leaves dipped
Protocol: Aphis gossypii Test (APHIGO)
as §1
Cotton leaves (Gossypium hirsutum) which are heavily infested by the cotton aphid (Aphis gossypii) are treated by being dipped into the preparation of active compound of the desired concentration.
(§3) After the desired period of time, the kill in % is determined 100% means that all aphids have been killed; 0% means that none of the aphids have been killed.

[5] = test system: green peach aphid (Myzus persicae); assay: Myzus persicae test (MYZUPE G), watering; details: 4 ppm, cabbage plants watered
Protocol: Myzus persicae Test; (MYZUPE G)
as §2
Cabbage plants (Brassica oleracea) which are heavily infested by the green peach aphid (Myzus persicae) are watered with a preparation of active compound of the desired concentration.
as §3

[6] = test system: brown planthopper (Nilaparvata lugens); assay: Nilaparvata lugens test (NILALU hydroponic treatment); details: 100 g/ha (so in the source), active compound pipetted into water
Protocol: Nilanarvata lugens Test (NILALU Hydrononic Treatment)
as §1
The preparation of active compound is pipetted into water. […] The water is then infected with the brown planthopper (Nilaparvata lugens).
After the desired period of time, the effect in % is determined. 100% means that all planthoppers have been killed; 0% means that none of the planthoppers have been killed.

[7] = test system: green peach aphid (Myzus persicae); assay: Myzus persicae test, hydroponic treatment (MYZUPE sys.); details: 20 ppm in water, pea plant
Protocol: Myzus persicae Test, Hydroponic Treatment (MYZUPE Sys.)
as §2
The preparation of active compound is mixed with water. The stated concentration refers to the amount of active compound per volume unit of water (mg/l=ppm). The treated water is filled into containers housing a pea plant (Pisum sativum) which is then infected with the green peach aphid (Myzus persicae).
(§4) After the desired period of time, the kill in % is determined. 100% means that all aphids have been killed; 0% means that none of the aphids have been killed.

[8] = test system: cotton aphid (Aphis gossypii); assay: Aphis gossypii test (APHIGO G), watering; details: 4 ppm, cotton plants watered
Protocol: Aphis gossypii Test; (APHIGO G)
as §2
Cotton plants (Gossypium hirsutum) which are heavily infested by the cotton aphid (Aphis gossypii) are watered with a preparation of active compound of the desired concentration.
as §4

Boophilus microplus = Boophilus microplus test (BOOPMI injection); details: 20 μg/animal injected into abdomen, 100% means no tick has laid fertile eggs
Protocol: Boophilus microplus Test (BOOPMI Injection)
To produce a suitable preparation of active compound, 1 part by weight of active compound is mixed with the stated amount of solvent, and the concentrate is diluted with solvent to the desired concentration.
The solution of active compound is injected into the abdomen (Boophilus microplus), and the animals are transferred into dishes and kept in a temperature-controlled room.
After the desired period of time, the effect in % is determined. 100% means that no tick has laid any fertile eggs.

Row | SMILES | Kill rate in % after 2 days [1] [%] | Kill rate in % after 5 days [2] [%] | Kill rate in % after 2 days (Lucilia cuprina larvae) [%] | Kill rate in % after 7 days [3] [%] | Kill rate in % after 14 days (Meloidogyne incognita) [%] | Kill rate in % after 6 days [4] [%] | Kill rate in % after 10 days [5] [%] | Kill rate in % after 7 days [6] [%] | Kill rate in % after 6 days [7] [%] | Kill rate in % after 10 days [8] [%] | Kill rate in % after 7 days (Boophilus microplus) [%]
1 | O=C1C=C(N(Cc2cnc(Cl)c(F)c2)CC(F)F)CO1 [Example 1, 4-[[(6-Chloro-5-fluoropyridin-3-yl)methyl](2,2-difluoroethyl)amino]furan-2(5H)-one] | 80 | 100 | 100 | 100 |  |  |  |  |  |  | 
2 | O=C1C=C(N(CCF)Cc2cnc(Cl)c(Cl)c2)CO1 [Example 2, 4-[[(5,6-Dichloropyridin-3-yl)methyl](2-fluoroethyl)amino]furan-2(5H)-one] |  | 100 |  |  | 100 | 95 | 98 | 80 | 100 | 100 | 100
